From patent publication US20130203709A1, “ACYLSULFONAMIDES AND PROCESSES FOR PRODUCING THE SAME” (priority 2010, published 2013)
Read-outs that look alike come from different tables or passages of the source.

What was measured:
Bcl-XL = Bcl-XL (Homo sapiens, UniProt Q07817); assay: fluorescence polarization (FP) assay, disruption of the Bcl-XL/BH3 interaction; format: binding; conditions: for inhibition at 100 µM: read-out: % Inhibition Bcl-XL; for inhibition at 50 µM: 50 μM acylsulfonamide, disruption of Bcl-XL/BH3 interaction in FP assay, read-out: Percentage Inhibition at 50 μM acylsulfonamide concentrations
Mcl-1 = Mcl-1 (Homo sapiens, UniProt Q07820); assay: fluorescence polarization (FP) assay, disruption of the Mcl-1/BH3 interaction; format: binding; conditions: for inhibition at 100 µM: read-out: % Inhibition Mcl-1
[1] = reactive fragments (SZ, TA), 100 μM per FIG. 22 legend, FP assay

Chain of Bcl-XL (Q07817 whole entry): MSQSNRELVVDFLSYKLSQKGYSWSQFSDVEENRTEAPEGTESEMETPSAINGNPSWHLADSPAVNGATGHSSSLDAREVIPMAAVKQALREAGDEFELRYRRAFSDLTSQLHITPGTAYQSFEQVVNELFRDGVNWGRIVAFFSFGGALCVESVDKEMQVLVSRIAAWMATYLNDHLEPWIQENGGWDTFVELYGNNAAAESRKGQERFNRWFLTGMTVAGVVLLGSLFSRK
Chain of Mcl-1 (Q07820 whole entry, the tested form may be a part): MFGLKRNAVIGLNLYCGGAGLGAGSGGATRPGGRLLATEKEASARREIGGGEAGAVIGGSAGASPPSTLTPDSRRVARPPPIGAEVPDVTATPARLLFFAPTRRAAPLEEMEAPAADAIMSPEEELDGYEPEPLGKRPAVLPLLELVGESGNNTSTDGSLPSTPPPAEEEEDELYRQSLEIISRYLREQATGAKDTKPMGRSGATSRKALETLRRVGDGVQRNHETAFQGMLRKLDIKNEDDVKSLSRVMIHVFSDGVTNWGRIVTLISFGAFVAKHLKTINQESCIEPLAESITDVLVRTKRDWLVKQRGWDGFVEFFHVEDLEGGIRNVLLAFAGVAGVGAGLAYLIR

Compound | inhibition at 100 µM (Bcl-XL; [1]) [%] | inhibition at 100 µM (Mcl-1; [1]) [%] | inhibition at 50 µM (Bcl-XL) [%] | also measured
Cc1ccc(-c2ccc(C(=O)O)cc2)cc1 [SK_2_170] | 7 ± 13 | 6.8 ± 1.3 |  | 
Cc1nc(-c2ccccc2)sc1C(=O)NS(=O)(=O)c1ccc(CN2CCN(c3ccccc3)CC2)cc1 [SZ1TA3] |  |  | 6 | 
CN(CCc1ccccc1)Cc1ccc(S(=O)(=O)NC(=O)c2ccccc2)cc1 [SZ2TA1] |  |  | 2 | 
CN(CCc1ccccc1)Cc1ccc(S(=O)(=O)NC(=O)c2ccc(N3CCC(C)(C)CC3)cc2)cc1 [SZ2TA2] |  |  | 9 | 
Cc1nc(-c2ccccc2)sc1C(=O)NS(=O)(=O)c1ccc(CN(C)CCc2ccccc2)cc1 [SZ2TA3] |  |  | 7 | 
COc1cc2c(cc1OC)C(c1ccccc1)N(CC(=O)NS(=O)(=O)c1ccc(CN(C)CCc3ccccc3)cc1)CC2 (stereo not shown) [SZ2TA4] |  |  | 25 | 
CC(=O)Nc1ccc(S(=O)(=O)NC(=O)c2ccccc2)cc1 [SZ3TA1] |  |  | 0 | 
CC(=O)Nc1ccc(S(=O)(=O)NC(=O)c2cccc([N+](=O)[O-])c2)cc1 [SZ3TA6] |  |  | 0 | 
CC(=O)Nc1ccc(S(=O)(=O)NC(=O)c2cccc3ccccc23)cc1 [SZ3TA7] |  |  | 0 | 
CC(=O)Nc1ccc(S(=O)(=O)NC(=O)c2ccc(OC(F)(F)F)cc2)cc1 [SZ3TA8] |  |  | 0 | 
CC(=O)Nc1ccc(S(=O)(=O)NC(=O)c2ccco2)cc1 [SZ3TA9] |  |  | 0 | 
O=C(NS(=O)(=O)c1ccc(NCCSc2ccccc2)c([N+](=O)[O-])c1)c1ccccc1 [SZ4TA1] |  |  | 14 | 
CC1(C)CCN(c2ccc(C(=O)NS(=O)(=O)c3ccc(NCCSc4ccccc4)c([N+](=O)[O-])c3)cc2)CC1 [SZ4TA2] |  |  | 100 | IC50 against Bcl-XL (in words) (Bcl-XL): in the nM range
[N-]=[N+]=NS(=O)(=O)c1ccc(NCCSc2ccccc2)c([N+](=O)[O-])c1 [SZ4] |  |  |  | inhibition at 100 µM (Bcl-XL): < 1%; inhibition at 100 µM (Mcl-1): 23.4 ± 14.9%
Cc1ccc(S(=O)(=O)NC(=O)c2ccccc2)cc1 [SZ5TA1] |  |  | 29 | 
Cc1ccc(S(=O)(=O)NC(=O)c2ccc(N3CCC(C)(C)CC3)cc2)cc1 [SZ5TA2] |  |  | 28 | 
Cc1ccc(S(=O)(=O)N=[N+]=[N-])cc1 [SZ5] |  |  |  | % Inhibition Bcl-XL (Bcl-XL; [1]): 2.3 ± 1.1%; % Inhibition Mcl-1 (Mcl-1; [1]): 1.2 ± 7.9%

Compound | inhibition at 100 µM (Bcl-XL; [1]) [%] | inhibition at 100 µM (Mcl-1; [1]) [%] | inhibition at 50 µM (Bcl-XL) [%] | also measured
CC1(C)CCN(c2ccc(C(=O)NS(=O)(=O)c3ccc4ccc(S(=O)(=O)NCCSc5ccccc5)cc4c3)cc2)CC1 [SZ7TA2] |  |  | 76 | 
[N-]=[N+]=NS(=O)(=O)c1ccc(CN(CCSc2ccccc2)Cc2ccc(S(=O)(=O)NC(=O)c3ccccc3)cc2)cc1 [SZ9TA1] |  |  | 80 | 
CC1(C)CCN(c2ccc(C(=O)NS(=O)(=O)c3ccc(CN(CCSc4ccccc4)Cc4ccc(S(=O)(=O)N=[N+]=[N-])cc4)cc3)cc2)CC1 [SZ9TA2] |  |  | 38 | 
Cc1nc(-c2ccccc2)sc1C(=O)NS(=O)(=O)c1ccc(CN(CCSc2ccccc2)Cc2ccc(S(=O)(=O)N=[N+]=[N-])cc2)cc1 [SZ9TA3] |  |  | 22 | 
COc1cc(OC)cc(C(=O)NS(=O)(=O)c2ccc(CN(CCSc3ccccc3)Cc3ccc(S(=O)(=O)N=[N+]=[N-])cc3)cc2)c1 [SZ9TA5] |  |  | 60 | 
[N-]=[N+]=NS(=O)(=O)c1ccc(CN(CCSc2ccccc2)Cc2ccc(S(=O)(=O)N=[N+]=[N-])cc2)cc1 [SZ9] |  |  |  | inhibition at 100 µM (Bcl-XL): 4.7 ± 4%; inhibition at 100 µM (Mcl-1): 13 ± 1.4%
[N-]=[N+]=NS(=O)(=O)c1ccc(COc2ccccc2[N+](=O)[O-])cc1 [SZ13] |  |  |  | % Inhibition Bcl-XL (Bcl-XL; [1]): 3.8 ± 4.1%; % Inhibition Mcl-1 (Mcl-1; [1]): <1%
O=C(NS(=O)(=O)c1ccc(CN(CCSc2ccccc2)Cc2c(F)cccc2Cl)cc1)c1ccccc1 [SZ15TA1] |  |  |  | fold less active than SZ31TA2 (Mcl-1; Mcl-1 PPIM activity relative to SZ31TA2): approximately 10 fold
[N-]=[N+]=NS(=O)(=O)c1ccc(-c2ccc(C(F)(F)F)cc2)cc1 [SZ16B] | 1.1 ± 1.2 | 1.3 ± 2.4 |  | 
[N-]=[N+]=NS(=O)(=O)c1ccc(Cl)cc1 [SZ18] |  |  |  | % Inhibition Bcl-XL (Bcl-XL; [1]): <1%; % Inhibition Mcl-1 (Mcl-1; [1]): <1%
COc1ccc(S(=O)(=O)N=[N+]=[N-])cc1 [SZ19] |  |  |  | % Inhibition Bcl-XL (Bcl-XL; [1]): <1%; % Inhibition Mcl-1 (Mcl-1; [1]): <1%
Cc1ccccc1S(=O)(=O)N=[N+]=[N-] [SZ20] |  |  |  | % Inhibition Bcl-XL (Bcl-XL; [1]): 1.4 ± 1.6%; % Inhibition Mcl-1 (Mcl-1; [1]): 6.2 ± 2.1%
[N-]=[N+]=NS(=O)(=O)CCN1CCCC2CCCCC21 (stereo not shown) [SZ22] | < 1 | 1.2 ± 1.2 |  | 
[N-]=[N+]=NS(=O)(=O)c1ccc(NCc2ccc(Br)cc2)cc1 [SZ29] |  |  |  | inhibition at 100 µM (Bcl-XL): < 1%; inhibition at 100 µM (Mcl-1): 5.7 ± 4.6%
CC1(C)CCN(c2ccc(C(=O)NS(=O)(=O)c3ccc(CN(CSc4ccccc4)Cc4ccc5c(c4)OCO5)cc3)cc2)CC1 [SZ31TA2] |  |  |  | IC50 (Mcl-1; FP assay, read-out: IC50 against Mcl-1): 3.3 µM; ligand efficiency (Mcl-1; against Mcl-1): 0.159
O=C(NS(=O)(=O)c1ccc(CN(CSc2ccccc2)Cc2ccc3c(c2)OCO3)cc1)c1ccc(OC(F)(F)F)cc1 [SZ31TA8] |  |  |  | selectivity index (Mcl-1; calculated, Mcl-1 over Bcl-XL): 19
CC1(C)CCN(c2ccc(C(=O)O)cc2)CC1 [TA2] | < 1 | 6.8 ± 6.7 |  | 

Further lines, with some results ahead:

inhibition at 100 µM (Bcl-XL; [1]) [%] | inhibition at 100 µM (Mcl-1; [1]) [%] | inhibition at 50 µM (Bcl-XL) [%] | Compound | also measured
6.7 ± 4.5 | < 1 |  | CC(=O)Nc1ccc(S(=O)(=O)N=[N+]=[N-])cc1 [SZ3] | 
4.6 ± 4.7 | 3.4 ± 0.2 |  | [N-]=[N+]=NS(=O)(=O)c1ccc2ccc(S(=O)(=O)NCCSc3ccccc3)cc2c1 [SZ6] | 
2.2 ± 0.7 | < 1 |  | CC(C)(C)c1ccc(-c2ccc(S(=O)(=O)N=[N+]=[N-])cc2)cc1 [SZ8] | 
1.9 ± 3.8 | < 1 |  | [N-]=[N+]=NS(=O)(=O)c1ccc(CN(CCSc2ccccc2)Cc2ccc(S(N)(=O)=O)cc2)cc1 [SZ10] | 
< 1 | < 1 |  | COc1cc2c(cc1OC)C(c1ccccc1)N(Cc1ccc(S(=O)(=O)N=[N+]=[N-])cc1)CC2 (stereo not shown) [SZ11] | 
< 1 | < 1 |  | [N-]=[N+]=NS(=O)(=O)c1ccc(CNc2cccc([N+](=O)[O-])c2)cc1 [SZ12] | 
7.9 ± 5.8 | 2.1 ± 3.3 |  | [N-]=[N+]=NS(=O)(=O)c1ccc(COc2ccc3c(=O)cc(-c4ccccc4)oc3c2)cc1 [SZ14] | 
10 ± 0.9 | 25.1 ± 0.7 |  | [N-]=[N+]=NS(=O)(=O)c1ccc(CN(CCSc2ccccc2)Cc2c(F)cccc2Cl)cc1 [SZ15] | 
2.6 ± 7.8 | 4 ± 1.6 |  | COc1cccc(CN(CCSc2ccccc2)Cc2ccc(S(=O)(=O)N=[N+]=[N-])cc2)c1 [SZ17] | 
1.1 | 49.3 ± 3.3 |  | CN(C)c1cccc2c(S(=O)(=O)N=[N+]=[N-])cccc12 [SZ21] | 
3.3 ± 2.1 | 3.6 ± 5.2 |  | [N-]=[N+]=NS(=O)(=O)CCN1CCc2ccccc2C1 [SZ23] | 
< 1 | 2.7 ± 7.5 |  | [N-]=[N+]=NS(=O)(=O)CCN1CCC(Cc2ccccc2)CC1 [SZ24] | 
< 1 | < 1 |  | [N-]=[N+]=NS(=O)(=O)CCN1CCN(Cc2ccc3c(c2)OCO3)CC1 [SZ25] | 
< 1 | < 1 |  | [N-]=[N+]=NS(=O)(=O)CCN(Cc1ccccc1)Cc1ccccc1 [SZ26] | 
4 ± 0.1 | 13.9 ± 0.05 |  | COc1cc2c(cc1OC)C(c1ccccc1)N(CCS(=O)(=O)N=[N+]=[N-])CC2 (stereo not shown) [SZ27] | 
< 1 | < 1 |  | [N-]=[N+]=NS(=O)(=O)CCN(CCSc1ccccc1)Cc1ccc2c(c1)OCO2 [SZ28] | 
< 1 | < 1 |  | CCN(CC)c1ccc(CNc2ccc(S(=O)(=O)N=[N+]=[N-])cc2)cc1 [SZ30] | 
< 1 | < 1 |  | [N-]=[N+]=NS(=O)(=O)c1ccc(CN(CCSc2ccccc2)Cc2ccc3c(c2)OCO3)cc1 [SZ31] | 
< 1 | 1.4 ± 3.6 |  | Cc1nc(-c2ccccc2)sc1C(=O)O [TA3] | 
< 1 | 1.5 ± 0.7 |  | COc1cc2c(cc1OC)C(c1ccccc1)N(CC(=O)O)CC2 (stereo not shown) [TA4] | 
< 1 | 1.3 ± 13.4 |  | COc1cc(OC)cc(C(=O)O)c1 [TA5] | 
< 1 | < 1 |  | O=C(O)c1cccc([N+](=O)[O-])c1 [TA6] | 
< 1 | 2.4 ± 6.8 |  | O=C(O)c1cccc2ccccc12 [TA7] | 
4 ± 1.2 | 3.6 ± 12.7 |  | O=C(O)c1ccc(OC(F)(F)F)cc1 [TA8] | 
< 1 | < 1 |  | O=C(O)c1ccco1 [TA9] | 
2 ± 1.7 | < 1 |  | O=C(O)c1ccno1 [TA10] | 
